Read-outs that look alike come from different tables or passages of the source.
Details: room temperature (20-35° C.), atmospheric pressure

## benzalkonium-perchlorate [BNZ-ClO4]
matrix: deionized water
  ClO4 equilibrium conc.: 0.20 mM
matrix: ethanol
  ClO4 equilibrium conc.: 231 mM
matrix: salt water
  ClO4 equilibrium conc.: 0.81 mM

— patent US12195372B2 (priority 2018, dated 2025)
